Values belong to the compound of their own block, whether it stands above or below them.
How the values were obtained:
[1] = design: method as in PMID 15157608; settings: cited from earlier work
[2] = tested on: MRP4 (ABCC4); settings: cited from earlier work
[3] = Transport study across oral mucosa Transwell model, apical to basolateral, 240 min; settings: human, Piroxicam study, mean ± SD
Procedure: (§1) As soon as cells reached confluency, cultivation was switched from submerged to airlift and 1% Human Keratinocytes Growth Supplements (HKGS, Gibco, Thermofisher, Vienna, Austria, S0015) was added to the cultivation media on the basolateral compartment. Media were changed every 2–3 days until the day of experiment on day 29. Cells from passage 14–36 were used for experiments. Transepithelial electric resistance (TEER) was measured on day of experiment, as described in detail previously.
(§2) Solutions were diluted to 10 µM (carboxyfluorescein) or 100 µM in DMEM on day of experiments.
(§3) First, TEER was measured in cultivation media on the day of experiment. Afterwards, cells and blanks were washed twice with DMEM on the apical (300 µL) and basolateral (900 µL) compartments and selected cells and blanks were treated with DMEM with or without 100 µM probenecid or verapamil on the apical and basolateral side at 37 °C for 30 min. […] To cells which were pre-incubated with probenecid or verapamil, 100 µM probenecid or verapamil was applied apically as well. DMSO content was adapted for cells with no inhibitors, and DMSO and dd-H2O content was adjusted in the basolateral compartment as well in order to apply the same vehicle concentrations on the apical and basolateral compartment. […] Subsequently, duplicates of apical sample were collected, and samples were frozen at −80 °C until further analysis with High-Performance Liquid Chromatography (HPLC).
(§4) Peaks were quantified using the software Chromeleon Version 7.2.6, and corresponding mili absorbance unit × time [mAU × min] values were used for data analysis.
(§5) Mean values of relative fluorescence unit (RFU) or detected area [mAU × min] were used for calculation. For the first timepoint, the clearance [µL] for the detected area was calculated as shown in the formula below (1a), with Abasot1 as the measured area [mAU × min] at the first time point of the basolateral sample, Vbaso as the basolateral volume [µL] and Astock as the area measured for the applied stock solution. […] Clearance [µL] for carboxyfluorescein was calculated with the same formulas using RFU. (1a) Clearance=Abasot1×Vbaso/AStock (1b) Clearancetn=Abasotn×Vbaso/AStock−∑(Abasotn−1 ×3− Abasot1 ×3)
(§6) Cleared volume [µL] was calculated by plotting the sum of clearance at all time points over time [min]. The resulting slope PS [µL/min] was calculated inversely. For calculation of the PScell, the inverse PS blanks were subtracted, as shown below in Formula (2). (2) 1/PScell=1/PSall−1/PSblank
(§7) The final permeability coefficient is calculated by dividing the inverse PScell by the area of the ThinCerts (0.336 cm^2) and multiplying by a conversion factor to give the permeability coefficient as µm/min.

[4] = tested on: oral mucosa epithelium in vitro model based on human cell line TR146; test: as above
Procedure: as §1, §2, §3, §4, §5, §6, §7

[5] = tested on: COX-2; design: method as in PMID 16678543; settings: 48 h post-surgery, compared to the placebo group ref 62; cited from earlier work
[6] = tested on: ECV304 cell monolayers; settings: cited from earlier work
[7] = tested on: TR146 cell layers; test: Carboxyfluorescein permeability assay (2 h) after 48 h inflammation treatment; type: in vitro ADME, human
Procedure: The resulting slope PS [µL/min] was calculated inversely. […] (2) 1/PScell=1/PSall−1/PSblank
ThinCerts® were seeded with cells as described above. Stock solutions of tumour necrosis factor α (TNF-α, Sigma-Alrich, H8916, 10 µg), Interleukin-1ß (IL-1ß, PeproTech, 200-01B, 2 µg) and Interferon-γ (IFN-γ, PeproTech, Vienna, Austria, 300-02, 20 µg) were prepared with Dulbecco’s Phosphate Buffered Saline (DPBS, Thermo-Fisher Scientific, Vienna, Austria, 14190094) containing 0.1% bovine serum albumin (BSA, Roth, Graz, Austria, 8076.2) at a concentration of 10 µg/mL and stored at −20 °C until usage. Three days before the experiments, cell layers and blanks were washed twice on the basolateral compartment with 900 µL cultivation media (DMEM supplemented with 10% Fetal Calf Serum and 1% Penicillin/Streptomycin) to remove anti-inflammatory hydrocortisone residues (a component of media supplement HKGS) and were further cultivated in cultivation media.
Prior to treating cells with prepared DMEM solutions, TEER was measured in cultivation media DMEM supplemented with 1% Penicillin/Streptomycin and 10% Fetal Calf Serum. Subsequently, cell layers and blanks were washed with DMEM (without supplements) twice on the apical and basolateral compartment, followed by TEER measurements in DMEM. Media of cells were replaced with previously prepared DMEM solutions. Control media was applied on the blanks. After 48 h treatment at 37 °C, 5% CO2 and 95% humidity TEER was measured. Subsequently, 10 µM carboxyfluorescein was added to the apical DMEM solutions and incubated in the incubator at 37 °C for 2 h. Media were immediately collected and measured for the RFU content using the EnSpire as described above. Afterwards, media were stored at −20 °C until further usage. Two cell-grown ThinCerts^TM of each treatment were pooled as one sample with 350 µL lysis buffer supplemented with 1% ß-mercaptoethanol and stored at −80 °C for RNA isolation.

[8] = tested on: TR146 cell layers; settings: human, not told, 4 h

Compound: C[C@]12CCC(=O)C=C1CC[C@@H]1[C@@H]2[C@@H](O)C[C@@]2(C)[C@H]1CC[C@]2(O)C(=O)CO [hydrocortisone]
biological half-life [1]: 8–12 h

Papp A→B at 240 min ([3]; PC (permeability of cell), w/o Inhibitor): 8.1 ×10⁻⁶ cm/s | Papp A→B at 240 min ([3]; with probenecid 100 µM, PC (permeability of cell), Probenecid): 9.68 ×10⁻⁶ cm/s | Papp A→B at 240 min ([3]; with probenecid 100 µM, PE (permeability of cell + blank), Probenecid): 4.52 ×10⁻⁶ cm/s | Papp A→B at 240 min ([3]; with verapamil 100 µM, PC (permeability of cell), Verapamil): 10 ×10⁻⁶ cm/s | Papp A→B at 240 min ([3]; with verapamil 100 µM, PE (permeability of cell + blank), Verapamil): 5.12 ×10⁻⁶ cm/s | PE (permeability of cell + blank) ([4]; Piroxicam study, w/o Inhibitor, mean ± SD): 2.44 ± 0.76 µm/min | Permeability coefficient without inflammation and inhibitor ([4]; Table S3, mean ± SD): 4.86 ± 2.41 µm/min | increase of permeability coefficient with probenecid compared to no inhibitor ([4]; human, 240 min, 100 µM): 1.19 fold | increase of permeability coefficient with verapamil compared to no inhibitor ([4]; human, 240 min, 100 µM): 1.23 fold | cumulated concentration of NSAID in the basolateral compartment ([4]; human, 4 h, 100 µM): 0.055 ± 0.016 nmol/mm^2 | permeability coefficient ([4]; with 100 µM probenecid, mean ± SEM): 5.81 ± 0.61 µm/min | permeability coefficient ([4]; with 100 µM verapamil, mean ± SEM): 6.00 ± 0.70 µm/min | permeability coefficient ([4]; without inhibitor, 100 µM apical (CF 10 µM), mean ± SEM): 4.86 ± 0.84 µm/min
Compound: CN1C(C(=O)Nc2ccccn2)=C(O)c2ccccc2S1(=O)=O [piroxicam]
inhibitory effect on MRP4 function [2]: weaker in comparison to ibuprofen

Compound: CS(=O)(=O)c1ccc(C2=C(c3ccccc3)C(=O)OC2)cc1 [rofecoxib]
COX-2 expression in the oral mucosa [5]: induced COX-2 expression

permeability coefficient for CF ([7]; across cells treated with cytokines 48 h, two hours): 16.16 ± 13.05 µm/min | permeability coefficient for CF ([7]; across cells treated with cytokines with ibuprofen 48 h, two hours): 16.75 ± 9.76 µm/min | permeability coefficient for CF ([7]; across cells treated with ibuprofen 48 h, two hours): 12.83 ± 3.57 µm/min | permeability coefficient for CF ([7]; across control cells, two hours after 48 h): 12.41 ± 5.15 µm/min | permeability coefficient [8]: 14.26 ± 7.14 µm/min | permeability coefficient ([4]; human, 240 min): 4.63 ± 0.24 µm/min
Compound: carboxyfluorescein [CF]
permeability coefficient across ECV304 cell monolayers [6]: ~ 5 µm/min

— paper PMC11054638, “Transport of Non-Steroidal Anti-Inflammatory Drugs across an Oral Mucosa Epithelium In Vitro Model” (Pharmaceutics, 2024)
